Where a SMILES comes first, the peptide text is derived from it. Bridges are numbered along the chain shown (N, C = ends). [ ]: non-standard residue; d: D form. The star is where a group is joined. Phe(4-COOH) = N[C@@H](Cc1ccc(C(=O)O)cc1)C(=O)O; Bip = N[C@@H](Cc1ccc(-c2ccccc2)cc1)C(=O)O; Phe(3-Me) = Cc1cccc(C[C@H](N)C(=O)O)c1; 4Pal = N[C@@H](Cc1ccncc1)C(=O)O; Cha = N[C@@H](CC1CCCCC1)C(=O)O; Carboxymethyl = O=C(O)C*; Orn = NCCC[C@H](N)C(=O)O; Dab = NCC[C@H](N)C(=O)O; Dap = NC[C@H](N)C(=O)O

Data on 16 compounds can be found in patent US20250163104A1, “MACROCYCLIC IMMUNOMODULATORS” (priority 2021, published 2025).

This experiment deals with T1, human PD-1 / PD-L1-Ig binding on Jurkat cell line over-expressing human PD-1 (Jurkat-PD-1) (Homo sapiens, UniProt Q15116).
T1 construct: expressed in transfected cells; host or cells: Jurkat
T1 sequence (Q15116 25-288): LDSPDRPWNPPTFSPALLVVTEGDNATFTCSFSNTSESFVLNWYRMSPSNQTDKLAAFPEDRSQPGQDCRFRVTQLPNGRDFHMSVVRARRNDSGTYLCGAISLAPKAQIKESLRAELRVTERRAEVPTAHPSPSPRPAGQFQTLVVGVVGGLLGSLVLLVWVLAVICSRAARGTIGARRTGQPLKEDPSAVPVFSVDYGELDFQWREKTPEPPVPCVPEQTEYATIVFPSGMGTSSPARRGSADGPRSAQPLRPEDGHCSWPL
The experiment is described as follows: Jurkat-PD-1 Cell Binding High-Content Screening Assay (CBA). In kind it is cell-based. To be noted: Jurkat-PD-1 cells, PE-labeled PD-L1-Ig 20 nM final; read-out: Jurkat HPD1_PDL1 IC50. The essentials:
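Jurkat-hPD-1 cells in DMEM with 10% fetal calf serum receive test compound and are held at 37° C for 2 h. PE-labeled PD-L1-Ig is added at 20 nM final and left for 1 hour. Cells are then fixed and Hoechst-stained, and binding is measured by imaging.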
As for `CC(C)C[C@H]1NC(=O)[C@H](CN)NC(=O)[C@H](C(C)C)NC(=O)[C@H](Cc2ccc(-c3ccccc3)cc2)NC(=O)[C@H](C(C)C)NC(=O)[C@H](Cc2c[nH]c3ccccc23)NC(=O)[C@H](CC(=O)O)NC(=O)[C@H](Cc2ccc(C(=O)O)cc2)NC(=O)[C@H](Cc2ccc(OCC(=O)O)cc2)NC(=O)CSC[C@@H](C(=O)NCC(N)=O)NC(=O)[C@H](CO)NC(=O)[C@H](C(C)C)NC(=O)[C@H](CC2CCCCC2)NC(=O)[C@H](CC(N)=O)NC1=O` [Compound 1413] ({CH2CO}-Y(Carboxymethyl)[Phe(4-COOH)]DWV[Bip]V[Dap][dL]N[Cha]VSCG-NH2; thioether N-14), the IC50 was 8.8 nM.
Next, `Cc1cccc(C[C@@H]2NC(=O)[C@H](CC(=O)O)NC(=O)[C@H](Cc3ccc(C(=O)O)cc3)NC(=O)[C@H](Cc3ccc(OCC(=O)O)cc3)NC(=O)CSC[C@@H](C(=O)N[C@@H](C)C(N)=O)NC(=O)[C@H]([C@@H](C)O)NC(=O)[C@H](C(C)C)NC(=O)[C@H](CC3CCCCC3)NC(=O)[C@H](CCN)NC(=O)[C@@H](CC(C)C)NC(=O)[C@H](CCCN)NC(=O)[C@H](CCCN)NC(=O)[C@H](Cc3ccc(-c4ccccc4)cc3)NC(=O)[C@H](C(C)C)NC2=O)c1` [Compound 1414]: 9.9 nM; `Cc1cccc(C[C@@H]2NC(=O)[C@H](CC(=O)O)NC(=O)[C@H](Cc3ccc(C(=O)O)cc3)NC(=O)[C@H](Cc3ccc(OCC(=O)O)cc3)NC(=O)CSC[C@@H](C(=O)N[C@@H](C)C(N)=O)NC(=O)[C@H]([C@@H](C)O)NC(=O)[C@H](C(C)C)NC(=O)[C@H](CC3CCCCC3)NC(=O)[C@H](CCN)NC(=O)[C@@H](CC(C)C)NC(=O)[C@H](CCCN)NC(=O)[C@H](CCN)NC(=O)[C@H](Cc3ccc(-c4ccccc4)cc3)NC(=O)[C@H](C(C)C)NC2=O)c1` [Compound 1415]: 13.8 nM.
The result for `Cc1cccc(C[C@@H]2NC(=O)[C@H](CC(=O)O)NC(=O)[C@H](Cc3ccc(C(=O)O)cc3)NC(=O)[C@H](Cc3ccc(OCC(=O)O)cc3)NC(=O)CSC[C@@H](C(=O)N[C@@H](C)C(N)=O)NC(=O)[C@H]([C@@H](C)O)NC(=O)[C@H](C(C)C)NC(=O)[C@H](CC3CCCCC3)NC(=O)[C@H](CCN)NC(=O)[C@@H](CC(C)C)NC(=O)[C@H](CCCN)NC(=O)[C@H](CN)NC(=O)[C@H](Cc3ccc(-c4ccccc4)cc3)NC(=O)[C@H](C(C)C)NC2=O)c1` [Compound 1416] reads 8.5 nM.
The result for `Cc1cccc(C[C@@H]2NC(=O)[C@H](CC(=O)O)NC(=O)[C@H](Cc3ccc(C(=O)O)cc3)NC(=O)[C@H](Cc3ccncc3)NC(=O)CSC[C@@H](C(=O)N[C@@H](C)C(N)=O)NC(=O)[C@H]([C@@H](C)O)NC(=O)[C@H](C(C)C)NC(=O)[C@H](CC3CCCCC3)NC(=O)[C@H](CCN)NC(=O)[C@@H](CC(C)C)NC(=O)[C@H](CCCN)NC(=O)[C@H](CCC(=O)O)NC(=O)[C@H](Cc3ccc(-c4ccccc4)cc3)NC(=O)[C@H](C(C)C)NC2=O)c1` [Compound 1417] reads 7 nM.
Take `Cc1cccc(C[C@@H]2NC(=O)[C@H](CC(=O)O)NC(=O)[C@H](Cc3ccncc3)NC(=O)[C@H](CN)NC(=O)CSC[C@@H](C(=O)N[C@@H](C)C(N)=O)NC(=O)[C@H]([C@@H](C)O)NC(=O)[C@H](C(C)C)NC(=O)[C@H](CC3CCCCC3)NC(=O)[C@H](CCN)NC(=O)[C@@H](CC(C)C)NC(=O)[C@H](CCCN)NC(=O)[C@H](CCC(=O)O)NC(=O)[C@H](Cc3ccc(-c4ccccc4)cc3)NC(=O)[C@H](C(C)C)NC2=O)c1` [Compound 1418] ({CH2CO}-[Dap][4Pal]D[Phe(3-Me)]V[Bip]E[Orn][dL][Dab][Cha]VTCA-NH2; thioether N-14): the IC50 was found to be 8.1 nM.
The result for `Cc1cccc(C[C@@H]2NC(=O)[C@H](CC(=O)O)NC(=O)[C@H](Cc3ccncc3)NC(=O)[C@H](Cc3ccc(OCC(=O)O)cc3)NC(=O)CSC[C@@H](C(=O)N[C@@H](C)C(N)=O)NC(=O)[C@H]([C@@H](C)O)NC(=O)[C@H](C(C)C)NC(=O)[C@H](CC3CCCCC3)NC(=O)[C@H](CCN)NC(=O)[C@@H](CC(C)C)NC(=O)[C@H](CCCN)NC(=O)[C@H](CCC(=O)O)NC(=O)[C@H](Cc3ccc(-c4ccccc4)cc3)NC(=O)[C@H](C(C)C)NC2=O)c1` [Compound 1419] ({CH2CO}-Y(Carboxymethyl)[4Pal]D[Phe(3-Me)]V[Bip]E[Orn][dL][Dab][Cha]VTCA-NH2; thioether N-14) reads 7.2 nM.
Next, `Cc1cccc(C[C@@H]2NC(=O)[C@H](CC(=O)O)NC(=O)[C@H](Cc3ccc(O)cc3)NC(=O)[C@H](CC(N)=O)NC(=O)CSC[C@@H](C(=O)N[C@@H](C)C(N)=O)NC(=O)[C@H]([C@@H](C)O)NC(=O)[C@H](C(C)C)NC(=O)[C@H](CC3CCCCC3)NC(=O)[C@H](CCN)NC(=O)[C@@H](CC(C)C)NC(=O)[C@H](CCCN)NC(=O)[C@H](CCC(=O)O)NC(=O)[C@H](Cc3ccc(-c4ccccc4)cc3)NC(=O)[C@H](C(C)C)NC2=O)c1` [Compound 1420] ({CH2CO}-NYD[Phe(3-Me)]V[Bip]E[Orn][dL][Dab][Cha]VTCA-NH2; thioether N-14): 7.5 nM.
The result for `CC(C)C[C@H]1NC(=O)[C@H](CCCN)NC(=O)[C@H](CCC(=O)O)NC(=O)[C@H](Cc2ccc(-c3ccccc3)cc2)NC(=O)[C@H](C(C)C)NC(=O)[C@H](Cc2c[nH]c3ccccc23)NC(=O)[C@H](CC(=O)O)NC(=O)[C@H](Cc2ccncc2)NC(=O)[C@H](Cc2ccc(OCC(=O)O)cc2)NC(=O)CSC[C@@H](C(=O)N[C@@H](C)C(N)=O)NC(=O)[C@H]([C@@H](C)O)NC(=O)[C@H](C(C)C)NC(=O)[C@H](CC2CCCCC2)NC(=O)[C@H](CCN)NC1=O` [Compound 1423] reads 9.9 nM; that for `CC(C)C[C@H]1NC(=O)[C@H](CCCN)NC(=O)[C@H](CCC(=O)O)NC(=O)[C@H](Cc2ccc(-c3ccccc3)cc2)NC(=O)[C@H](C(C)C)NC(=O)[C@H](Cc2c[nH]c3ccccc23)NC(=O)[C@H](CC(=O)O)NC(=O)[C@H](Cc2ccc(O)cc2)NC(=O)[C@H](CC(N)=O)NC(=O)CSC[C@@H](C(=O)N[C@@H](C)C(N)=O)NC(=O)[C@H]([C@@H](C)O)NC(=O)[C@H](C(C)C)NC(=O)[C@H](CC2CCCCC2)NC(=O)[C@H](CCN)NC1=O` [Compound 1424] ({CH2CO}-NYDWV[Bip]E[Orn][dL][Dab][Cha]VTCA-NH2; thioether N-14), 14.7 nM.
Take `CC(C)C[C@H]1NC(=O)[C@H](CCCN)NC(=O)[C@H](CCC(=O)O)NC(=O)[C@H](Cc2ccc(-c3ccccc3)cc2)NC(=O)[C@H](C(C)C)NC(=O)[C@H](Cc2c[nH]c3ccccc23)NC(=O)[C@H](CC(=O)O)NC(=O)[C@H](Cc2ccc(OCC(=O)O)cc2)NC(=O)[C@H](CN)NC(=O)CSC[C@@H](C(=O)N[C@@H](C)C(N)=O)NC(=O)[C@H]([C@@H](C)O)NC(=O)[C@H](C(C)C)NC(=O)[C@H](CC2CCCCC2)NC(=O)[C@H](CCN)NC1=O` [Compound 1425]: the IC50 worked out at 16.8 nM.
The result for `Cc1cccc(C[C@@H]2NC(=O)[C@H](CC(=O)O)NC(=O)[C@H](Cc3ccc(C(=O)O)cc3)NC(=O)[C@H](Cc3ccc(OCC(=O)O)cc3)NC(=O)CSC[C@@H](C(=O)N[C@@H](C)C(N)=O)NC(=O)[C@H]([C@@H](C)O)NC(=O)[C@H](C(C)C)NC(=O)[C@H](CC3CCCCC3)NC(=O)[C@H](CCN)NC(=O)[C@@H](CC(C)C)NC(=O)[C@H](CCCN)NC(=O)[C@H](CCC(=O)O)NC(=O)[C@H](Cc3ccc(-c4ccccc4)cc3)NC(=O)[C@H](C(C)C)NC2=O)c1` [Compound 1426] reads 23.3 nM; that for `CC(C)C[C@H]1NC(=O)[C@H](CCCN)NC(=O)[C@H](CCC(=O)O)NC(=O)[C@H](Cc2ccc(-c3ccccc3)cc2)NC(=O)[C@H](C(C)C)NC(=O)[C@H](Cc2c[nH]c3ccccc23)NC(=O)[C@H](CC(=O)O)NC(=O)[C@H](Cc2ccc(C(=O)O)cc2)NC(=O)[C@H](Cc2ccc(OCC(=O)O)cc2)NC(=O)CSC[C@@H](C(=O)N[C@@H](C)C(N)=O)NC(=O)[C@H]([C@@H](C)O)NC(=O)[C@H](C(C)C)NC(=O)[C@H](CC2CCCCC2)NC(=O)[C@H](CCN)NC1=O` [Compound 1427], 9.7 nM.
Turning to `Cc1cccc(C[C@@H]2NC(=O)[C@H](CC(=O)O)NC(=O)[C@H](Cc3ccc(C(=O)O)cc3)NC(=O)[C@H](Cc3ccncc3)NC(=O)CSC[C@@H](C(=O)N[C@@H](C)C(N)=O)NC(=O)[C@H]([C@@H](C)O)NC(=O)[C@H](C(C)C)NC(=O)[C@H](CC3CCCCC3)NC(=O)[C@H](CCN)NC(=O)[C@@H](Cc3ccccc3)NC(=O)[C@H](CCCN)NC(=O)[C@H](CCC(=O)O)NC(=O)[C@H](Cc3ccc(-c4ccccc4)cc3)NC(=O)[C@H](C(C)C)NC2=O)c1` [Compound 1428] ({CH2CO}-[4Pal][Phe(4-COOH)]D[Phe(3-Me)]V[Bip]E[Orn][dF][Dab][Cha]VTCA-NH2; thioether N-14), the IC50 amounted to 18.4 nM.
As to `Cc1cccc(C[C@@H]2NC(=O)[C@H](CC(=O)O)NC(=O)[C@H](Cc3ccncc3)NC(=O)[C@H](CN)NC(=O)CSC[C@@H](C(=O)N[C@@H](C)C(N)=O)NC(=O)[C@H]([C@@H](C)O)NC(=O)[C@H](C(C)C)NC(=O)[C@H](CC3CCCCC3)NC(=O)[C@H](CCN)NC(=O)[C@@H](Cc3ccccc3)NC(=O)[C@H](CCCN)NC(=O)[C@H](CCC(=O)O)NC(=O)[C@H](Cc3ccc(-c4ccccc4)cc3)NC(=O)[C@H](C(C)C)NC2=O)c1` [Compound 1429] ({CH2CO}-[Dap][4Pal]D[Phe(3-Me)]V[Bip]E[Orn][dF][Dab][Cha]VTCA-NH2; thioether N-14), the IC50 came out at 9.5 nM.
The result for `Cc1cccc(C[C@@H]2NC(=O)[C@H](CC(=O)O)NC(=O)[C@H](Cc3ccncc3)NC(=O)[C@H](Cc3ccc(OCC(=O)O)cc3)NC(=O)CSC[C@@H](C(=O)N[C@@H](C)C(N)=O)NC(=O)[C@H]([C@@H](C)O)NC(=O)[C@H](C(C)C)NC(=O)[C@H](CC3CCCCC3)NC(=O)[C@H](CCN)NC(=O)[C@@H](Cc3ccccc3)NC(=O)[C@H](CCCN)NC(=O)[C@H](CCC(=O)O)NC(=O)[C@H](Cc3ccc(-c4ccccc4)cc3)NC(=O)[C@H](C(C)C)NC2=O)c1` [Compound 1430] ({CH2CO}-Y(Carboxymethyl)[4Pal]D[Phe(3-Me)]V[Bip]E[Orn][dF][Dab][Cha]VTCA-NH2; thioether N-14) reads 10.8 nM.
